# Assay results taken from ChEMBL document CHEMBL4400547 (J Med Chem, 2019).
# The source made the active and inactive calls. The rule behind the calls is not given here.
# What was measured:
# [1] = molecular target: T1, Serine/threonine-protein kinase/endoribonuclease IRE1 (Homo sapiens, UniProt O75460); experiment: Displacement for LanthaScreen tracer from dephosphorylated IRE1alpha (G547 to L977 residues) (unknown origin) ATP binding site […] after 60 mins by FRET assay
# Target sequence in this assay (O75460 whole entry, the tested form may be a part): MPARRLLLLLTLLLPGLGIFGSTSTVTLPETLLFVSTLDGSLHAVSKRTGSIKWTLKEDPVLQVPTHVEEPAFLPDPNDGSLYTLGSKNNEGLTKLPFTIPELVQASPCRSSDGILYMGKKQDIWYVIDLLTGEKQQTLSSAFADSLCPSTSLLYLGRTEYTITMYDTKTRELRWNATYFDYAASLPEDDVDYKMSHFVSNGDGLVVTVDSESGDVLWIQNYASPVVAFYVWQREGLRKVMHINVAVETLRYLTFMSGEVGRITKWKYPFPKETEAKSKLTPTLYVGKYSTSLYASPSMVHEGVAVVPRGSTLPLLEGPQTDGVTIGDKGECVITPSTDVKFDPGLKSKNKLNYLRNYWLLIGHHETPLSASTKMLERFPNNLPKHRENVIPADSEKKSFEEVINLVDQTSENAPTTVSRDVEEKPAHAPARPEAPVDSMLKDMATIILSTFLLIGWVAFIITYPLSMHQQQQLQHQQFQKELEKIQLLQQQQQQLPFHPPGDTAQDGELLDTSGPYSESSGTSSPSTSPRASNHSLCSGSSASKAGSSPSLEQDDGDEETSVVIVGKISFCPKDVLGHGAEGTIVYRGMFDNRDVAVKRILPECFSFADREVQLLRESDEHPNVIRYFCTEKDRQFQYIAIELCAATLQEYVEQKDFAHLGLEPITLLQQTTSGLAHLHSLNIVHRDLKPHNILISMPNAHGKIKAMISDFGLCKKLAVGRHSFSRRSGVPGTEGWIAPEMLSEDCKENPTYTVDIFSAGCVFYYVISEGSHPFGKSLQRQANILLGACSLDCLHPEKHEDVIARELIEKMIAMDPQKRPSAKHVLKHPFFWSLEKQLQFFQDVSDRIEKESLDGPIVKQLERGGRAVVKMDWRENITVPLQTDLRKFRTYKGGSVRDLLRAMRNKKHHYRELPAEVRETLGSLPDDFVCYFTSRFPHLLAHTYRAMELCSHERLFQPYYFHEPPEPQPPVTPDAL
# [2] = molecular target: T1, Serine/threonine-protein kinase/endoribonuclease IRE1; experiment: Inhibition of dephosphorylated IRE1alpha (G547 to L977 residues) (unknown origin) autophosphorylation at S724 after 25 mins in presence of ATP by dissociation-enhanced lanthanide fluorescence immunoassay
# Target sequence in this assay (O75460 whole entry, the tested form may be a part): as above
# [3] = molecular target: T1, Serine/threonine-protein kinase/endoribonuclease IRE1; experiment: Inhibition of tunicamycin-induced GFP-fused IRE1alpha (unknown origin) oligomerization expressed in HEK293 cells assessed as reduction in fluorescent foci formation after 5 hrs by fluorescence based assay; assay type: cell-based
# Target sequence in this assay (O75460 whole entry, the tested form may be a part): as above
# [4] = molecular target: T1, Serine/threonine-protein kinase/endoribonuclease IRE1; experiment: Inhibition of thapsigargin-induced IRE1alpha (unknown origin) expressed in HEK293 cells assessed as reduction in IRE1alpha-dependent splicing of XBP1u-luciferase mRNA by luciferase reporter gene assay; assay type: cell-based
# Target sequence in this assay (O75460 whole entry, the tested form may be a part): as above
# [5] = test system: HEK293; experiment: cells; details: Homo sapiens
# Description: Cytotoxicity against HEK293 cells co-expressing XBP1u-mRNA by luciferase reporter gene assay
# [6] = molecular target: T1, Serine/threonine-protein kinase/endoribonuclease IRE1; experiment: Inhibition of dephosphorylated IRE1alpha (G547 to L977 residues) (unknown origin) -dependent cleavage of FAM-labeled stem-loop RNA containing the XBP1 cleavage site preincubated for 30 mins followed by RNA XBP1 substrate addition and measured after 15 mins by FRET assay
# Target sequence in this assay (O75460 whole entry, the tested form may be a part): as above
# [7] = molecular target: T1, Serine/threonine-protein kinase/endoribonuclease IRE1; experiment: Inhibition of tunicamycin-induced IRE1alpha (unknown origin) expressed in HEK293 cells assessed as reduction in IRE1alpha-dependent splicing of XBP1u-luciferase mRNA by luciferase reporter gene assay; assay type: cell-based
# Target sequence in this assay (O75460 whole entry, the tested form may be a part): as above
# [8] = molecular target: Cyclin-dependent kinase 17 (Homo sapiens) (UniProt Q00537); experiment: Inhibition of recombinant human GST-tagged PCTK2 expressed in baculovirus expression system at 1 uM by kinomescan assay relative to control
# [9] = physchem; details: buffer
# Description: Aqueous kinetic solubility of the compound
# [10] = Distribution coefficient, log D of the compound at pH 7.4; assay type: physicochemical; details: octanol/water
# [11] = molecular target: Homeodomain-interacting protein kinase 4 (Homo sapiens) (UniProt Q8NE63); experiment: Inhibition of recombinant human His-tagged HIPK4 expressed in baculovirus expression system at 1 uM by kinomescan assay relative to control
# [12] = molecular target: Homeodomain-interacting protein kinase 3 (Homo sapiens) (UniProt Q9H422); experiment: Inhibition of recombinant human His-tagged HIPK3 expressed in baculovirus expression system at 1 uM by kinomescan assay relative to control
# [13] = molecular target: Platelet-derived growth factor receptor alpha (Homo sapiens) (UniProt P16234); experiment: Inhibition of recombinant human GST-tagged PDGFRA expressed in baculovirus expression system at 1 uM by kinomescan assay relative to control
# [14] = test system: Mast/stem cell growth factor receptor Kit (Homo sapiens), P10721 [L576P]; experiment: Inhibition of recombinant human His-tagged KIT L576P mutant expressed in baculovirus expression system at 1 uM by kinomescan assay relative to control
# [15] = molecular target: Dual specificity tyrosine-phosphorylation-regulated kinase 1A (Homo sapiens) (UniProt Q13627); experiment: Inhibition of recombinant full length human GST-tagged DYRK1A expressed in baculovirus expression system at 1 uM by kinomescan assay relative to control
# [16] = test system: Receptor-type tyrosine-protein kinase FLT3 (Homo sapiens), P36888 [D835H]; experiment: Inhibition of recombinant human His-tagged FLT3 D835H mutant expressed in baculovirus expression system at 1 uM by kinomescan assay relative to control
# [17] = test system: Tyrosine-protein kinase ABL1 (Homo sapiens), P00519 [F317L]; experiment: Inhibition of phosphorylated recombinant human His-tagged ABL1 F317L mutant expressed in baculovirus expression system at 1 uM by kinomescan assay relative to control
# [18] = test system: Receptor-type tyrosine-protein kinase FLT3 (Homo sapiens), P36888 [D835V]; experiment: Inhibition of recombinant human His-tagged FLT3 D835V mutant expressed in baculovirus expression system at 1 uM by kinomescan assay relative to control
# [19] = test system: Mast/stem cell growth factor receptor Kit (Homo sapiens), P10721 [V559D,V654A]; experiment: Inhibition of recombinant human His-tagged KIT V559D/V654A double mutant expressed in baculovirus expression system at 1 uM by kinomescan assay relative to control
# [20] = test system: Mast/stem cell growth factor receptor Kit (Homo sapiens), P10721 [V559D]; experiment: Inhibition of recombinant human His-tagged KIT V559D mutant expressed in baculovirus expression system at 1 uM by kinomescan assay relative to control
# [21] = molecular target: Dual specificity protein kinase CLK1 (Homo sapiens) (UniProt P49759); experiment: Inhibition of recombinant human GST-tagged CLK1 expressed in Escherichia coli at 1 uM by kinomescan assay relative to control
# [22] = molecular target: Dual specificity tyrosine-phosphorylation-regulated kinase 2 (Homo sapiens) (UniProt Q92630); experiment: Inhibition of recombinant human GST-tagged DYRK2 at 1 uM by kinomescan assay relative to control
# [23] = test system: Receptor-type tyrosine-protein kinase FLT3 (Homo sapiens), P36888 [R834Q]; experiment: Inhibition of recombinant human His-tagged FLT3 R834Q mutant expressed in baculovirus expression system at 1 uM by kinomescan assay relative to control
# [24] = test system: Receptor-type tyrosine-protein kinase FLT3 (Homo sapiens), P36888 [N841I]; experiment: Inhibition of recombinant human His-tagged FLT3 […] mutant expressed in baculovirus expression system at 1 uM by kinomescan assay relative to control
# [25] = molecular target: Dual specificity protein kinase CLK2 (Homo sapiens) (UniProt P49760); experiment: Inhibition of recombinant human GST-tagged CLK2 expressed in baculovirus expression system at 1 uM by kinomescan assay relative to control
# [26] = molecular target: Homeodomain-interacting protein kinase 1 (Homo sapiens) (UniProt Q86Z02); experiment: Inhibition of recombinant human GST-tagged HIPK1 expressed in baculovirus expression system at 1 uM by kinomescan assay relative to control
# [27] = molecular target: Myosin light chain kinase, smooth muscle (Homo sapiens) (UniProt Q15746); experiment: Inhibition of recombinant human GST-tagged MLCK expressed in baculovirus expression system at 1 uM by kinomescan assay relative to control
# [28] = molecular target: T1, Serine/threonine-protein kinase/endoribonuclease IRE1; experiment: Inhibition of tunicamycin-induced IRE1alpha-dependent splicing of XBP1s-mRNA transcription in human H929 cells assessed as reduction in […] mRNA expression in at 0.5 to 10 uM by RT-qPCR analysis; assay type: cell-based
# [29] = species on record: Homo sapiens; experiment: Inhibition of recombinant human His-tagged FLT3 ITD/D835V double mutant expressed in baculovirus expression system at 1 uM by kinomescan assay relative to control
# [30] = molecular target: Mast/stem cell growth factor receptor Kit (Homo sapiens) (UniProt P10721); experiment: Inhibition of recombinant human His-tagged KIT expressed in baculovirus expression system at 1 uM by kinomescan assay relative to control
# [31] = molecular target: Receptor-type tyrosine-protein kinase FLT3 (Homo sapiens) (UniProt P36888); experiment: Inhibition of auto-inhibited recombinant human His-tagged FLT3 expressed in baculovirus expression system at 1 uM by kinomescan assay relative to control
# [32] = molecular target: Receptor-type tyrosine-protein kinase FLT3 (Homo sapiens) (UniProt P36888); experiment: Inhibition of recombinant human His-tagged FLT3 expressed in baculovirus expression system at 1 uM by kinomescan assay relative to control
# [33] = molecular target: Dual specificity tyrosine-phosphorylation-regulated kinase 1B (Homo sapiens) (UniProt Q9Y463); experiment: Inhibition of recombinant full length human GST-tagged DYRK1B expressed in baculovirus expression system at 1 uM by kinomescan assay relative to control
# [34] = test system: Tyrosine-protein kinase ABL1 (Homo sapiens), P00519 [F317I]; experiment: Inhibition of phosphorylated recombinant human His-tagged ABL1 F317I mutant expressed in baculovirus expression system at 1 uM by kinomescan assay relative to control
# [35] = molecular target: Dual specificity protein kinase CLK4 (Homo sapiens) (UniProt Q9HAZ1); experiment: Inhibition of recombinant full length human GST-tagged CLK4 expressed in baculovirus expression system at 1 uM by kinomescan assay relative to control
# [36] = test system: Receptor-type tyrosine-protein kinase FLT3 (Homo sapiens), P36888 [UNDEFINED MUTATION]; experiment: Inhibition of recombinant human His-tagged FLT3 ITD mutant expressed in baculovirus expression system at 1 uM by kinomescan assay relative to control
# [37] = test system: Mast/stem cell growth factor receptor Kit (Homo sapiens), P10721 [V559D,T670I]; experiment: Inhibition of recombinant human His-tagged KIT V559D/T670I double mutant expressed in baculovirus expression system at 1 uM by kinomescan assay relative to control
# [38] = molecular target: Cyclin-G-associated kinase (Homo sapiens) (UniProt O14976); experiment: Inhibition of recombinant human GST-tagged GAK (1 to 396 residues) expressed in insect cell expression system at 1 uM by kinomescan assay relative to control
# [39] = molecular target: Homeodomain-interacting protein kinase 2 (Homo sapiens) (UniProt Q9H2X6); experiment: Inhibition of recombinant human N-terminal GST-tagged HIPK2 expressed in baculovirus expression system at 1 uM by kinomescan assay relative to control
# [40] = molecular target: Platelet-derived growth factor receptor beta (Homo sapiens) (UniProt P09619); experiment: Inhibition of recombinant human His-tagged PDGFRB expressed in baculovirus expression system at 1 uM by kinomescan assay relative to control
# [41] = test system: Receptor-type tyrosine-protein kinase FLT3 (Homo sapiens), P36888 [K663Q]; experiment: Inhibition of recombinant human His-tagged FLT3 K663Q mutant expressed in baculovirus expression system at 1 uM by kinomescan assay relative to control
# [42] = test system: Receptor-type tyrosine-protein kinase FLT3 (Homo sapiens), P36888 [D835Y]; experiment: Inhibition of recombinant human His-tagged FLT3 D835Y mutant expressed in baculovirus expression system at 1 uM by kinomescan assay relative to control
# Chain of Mast/stem cell growth factor receptor Kit (Homo sapiens) (P10721 whole entry): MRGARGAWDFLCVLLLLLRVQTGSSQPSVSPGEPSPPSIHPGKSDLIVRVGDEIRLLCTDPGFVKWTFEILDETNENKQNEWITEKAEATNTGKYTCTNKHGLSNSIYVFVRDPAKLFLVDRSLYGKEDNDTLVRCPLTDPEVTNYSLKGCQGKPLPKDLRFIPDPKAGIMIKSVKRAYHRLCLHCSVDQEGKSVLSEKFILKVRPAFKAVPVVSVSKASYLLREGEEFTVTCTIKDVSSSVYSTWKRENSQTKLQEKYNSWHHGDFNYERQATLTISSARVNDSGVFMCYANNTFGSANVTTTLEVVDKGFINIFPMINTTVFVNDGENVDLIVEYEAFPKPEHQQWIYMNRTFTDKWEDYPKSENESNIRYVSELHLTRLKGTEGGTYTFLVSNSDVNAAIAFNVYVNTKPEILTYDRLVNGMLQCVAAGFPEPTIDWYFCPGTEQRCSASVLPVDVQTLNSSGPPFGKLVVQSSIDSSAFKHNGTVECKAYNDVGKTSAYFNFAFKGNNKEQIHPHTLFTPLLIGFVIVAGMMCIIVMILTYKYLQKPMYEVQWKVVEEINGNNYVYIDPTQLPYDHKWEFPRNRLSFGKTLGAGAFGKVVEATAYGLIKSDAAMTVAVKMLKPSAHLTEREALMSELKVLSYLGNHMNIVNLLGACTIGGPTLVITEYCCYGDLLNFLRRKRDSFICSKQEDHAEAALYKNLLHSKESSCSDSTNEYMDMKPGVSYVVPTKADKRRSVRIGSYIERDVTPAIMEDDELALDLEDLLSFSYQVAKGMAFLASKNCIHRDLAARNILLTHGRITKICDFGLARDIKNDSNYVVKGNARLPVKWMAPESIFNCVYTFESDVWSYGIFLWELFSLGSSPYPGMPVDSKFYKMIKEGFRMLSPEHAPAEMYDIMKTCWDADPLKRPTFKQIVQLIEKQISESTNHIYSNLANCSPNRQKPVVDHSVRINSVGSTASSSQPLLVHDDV
# Chain of Dual specificity protein kinase CLK1 (Homo sapiens) (P49759 whole entry, looked up): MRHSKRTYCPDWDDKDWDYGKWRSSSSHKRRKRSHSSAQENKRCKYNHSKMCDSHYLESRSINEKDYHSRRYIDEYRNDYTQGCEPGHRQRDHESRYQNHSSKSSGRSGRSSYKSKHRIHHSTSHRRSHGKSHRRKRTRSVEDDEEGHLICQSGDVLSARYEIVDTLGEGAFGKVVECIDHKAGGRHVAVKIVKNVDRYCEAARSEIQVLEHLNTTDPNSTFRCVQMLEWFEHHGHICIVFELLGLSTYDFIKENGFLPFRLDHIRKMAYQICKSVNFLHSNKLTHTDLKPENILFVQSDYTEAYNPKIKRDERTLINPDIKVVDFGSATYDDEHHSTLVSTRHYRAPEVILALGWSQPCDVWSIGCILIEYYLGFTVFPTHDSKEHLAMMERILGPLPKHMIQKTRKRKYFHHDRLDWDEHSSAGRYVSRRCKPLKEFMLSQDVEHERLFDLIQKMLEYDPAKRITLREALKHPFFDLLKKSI
# Chain of Mast/stem cell growth factor receptor Kit (Homo sapiens), P10721 [L576P] (P10721 whole entry L576P): as the sequence (P10721 whole entry) above, with L576P counted along it
# Chain of Dual specificity protein kinase CLK2 (Homo sapiens) (P49760 whole entry, looked up): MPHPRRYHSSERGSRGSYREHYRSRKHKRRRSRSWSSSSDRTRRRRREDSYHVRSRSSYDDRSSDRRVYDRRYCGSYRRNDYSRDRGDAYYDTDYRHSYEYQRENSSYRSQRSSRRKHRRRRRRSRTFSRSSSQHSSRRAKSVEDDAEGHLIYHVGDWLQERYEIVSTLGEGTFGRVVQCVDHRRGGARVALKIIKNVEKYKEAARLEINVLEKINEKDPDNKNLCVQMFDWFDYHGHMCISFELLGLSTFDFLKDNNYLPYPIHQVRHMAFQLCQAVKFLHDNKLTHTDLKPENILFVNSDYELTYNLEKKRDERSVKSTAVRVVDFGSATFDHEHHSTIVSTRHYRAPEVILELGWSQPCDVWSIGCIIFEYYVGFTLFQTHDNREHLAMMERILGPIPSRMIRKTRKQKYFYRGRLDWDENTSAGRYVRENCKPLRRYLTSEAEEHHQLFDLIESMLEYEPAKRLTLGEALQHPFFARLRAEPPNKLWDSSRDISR
# Chain of Dual specificity tyrosine-phosphorylation-regulated kinase 1B (Homo sapiens) (Q9Y463 whole entry, looked up): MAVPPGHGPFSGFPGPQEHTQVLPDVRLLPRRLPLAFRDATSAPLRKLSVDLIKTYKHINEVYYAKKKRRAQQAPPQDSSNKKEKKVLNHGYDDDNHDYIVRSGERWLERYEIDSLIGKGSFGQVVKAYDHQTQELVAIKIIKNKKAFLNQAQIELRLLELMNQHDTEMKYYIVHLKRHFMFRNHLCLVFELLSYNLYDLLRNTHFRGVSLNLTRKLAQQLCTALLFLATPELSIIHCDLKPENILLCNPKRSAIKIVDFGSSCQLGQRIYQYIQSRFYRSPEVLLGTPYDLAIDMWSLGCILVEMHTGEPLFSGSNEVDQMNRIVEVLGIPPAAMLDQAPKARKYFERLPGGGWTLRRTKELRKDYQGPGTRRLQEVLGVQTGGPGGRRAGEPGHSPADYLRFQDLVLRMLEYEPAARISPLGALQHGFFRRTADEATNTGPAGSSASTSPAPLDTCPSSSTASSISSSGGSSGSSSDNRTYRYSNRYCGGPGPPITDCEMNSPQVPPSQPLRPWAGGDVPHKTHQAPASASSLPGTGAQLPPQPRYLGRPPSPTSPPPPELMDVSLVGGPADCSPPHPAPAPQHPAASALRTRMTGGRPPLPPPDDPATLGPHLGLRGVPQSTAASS
smiles,measurement,setting,value
Cn1c(Nc2ccccc2)nc2cc(-c3cnc4c(NCC5CC5)cc(Cl)nn34)ccc21,IC50,[1],> 10 µM
same,IC50,[2],> 10 µM
CN1CCC(CNc2cc(Cl)nn3c(-c4cc5nc(Nc6ccccc6)[nH]c5cc4F)cnc23)CC1,IC50,[1],0.27 µM
same,IC50,[3],0.74 µM
same,IC50,[4],0.68 to 1.63 µM
same,IC50,[2],0.16 µM
same,EC50,[5],9 µM
same,IC50,[6],0.08 µM
same,IC50,[7],0.71 µM
same,inhibition,[8],> 90%
Clc1cc(NC2CCOCC2)c2ncc(-c3ccc4[nH]c(Nc5ccccc5)nc4c3)n2n1,solubility kinetic,[9],2.4 µM
Clc1cc(NCC2CC2)c2ncc(-c3ccc4cn[nH]c4c3)n2n1,IC50,[1],> 10 µM
same,IC50,[2],> 10 µM
Clc1cc(NC2CCOCC2)c2ncc(-c3ccc4[nH]ncc4c3)n2n1,solubility kinetic,[9],2.2 µM
Clc1cc(NCC2CC2)c2ncc(-c3ccc4[nH]c(Nc5ccccc5)nc4c3)n2n1,logD,[10],4.1
same,solubility kinetic,[9],2.9 µM
O=C(CN1CCOCC1)N[C@H]1CC[C@H](Nc2cc(Cl)nn3c(-c4ccc5[nH]ncc5c4)cnc23)CC1,inhibition,[11],> 90%
same,inhibition,[12],> 90%
same,inhibition,[13],> 90%
same,IC50,[1],0.087 µM
same,inhibition,[14],> 90%
same,inhibition,[15],> 90%
same,inhibition,[16],> 90%
same,inhibition,[17],> 90%
same,inhibition,[18],> 90%
same,inhibition,[19],> 90%
same,inhibition,[20],> 90%
same,inhibition,[21],> 90%
same,inhibition,[22],> 90%
same,IC50,[3],1.88 µM
same,inhibition,[23],> 90%
same,inhibition,[24],> 90%
same,inhibition,[25],> 90%
same,IC50,[4],0.68 to 1.63 µM
same,inhibition,[26],> 90%
same,inhibition,[27],> 90%
same,inhibition,[28],Active
same,IC50,[2],0.24 µM
same,inhibition,[29],> 90%
same,inhibition,[30],> 90%
same,inhibition,[31],> 90%
same,EC50,[5],> 49 µM
same,inhibition,[32],> 90%
same,inhibition,[33],> 90%
same,inhibition,[34],> 90%
same,inhibition,[35],> 90%
same,inhibition,[36],> 90%
same,inhibition,[37],> 90%
same,inhibition,[38],> 90%
same,IC50,[6],0.027 µM
same,inhibition,[39],> 90%
same,IC50,[7],1.12 µM
Clc1cc(NCC2CC2)c2ncc(-c3ccc4[nH]ncc4c3)n2n1,inhibition,[11],> 90%
same,inhibition,[40],> 90%
same,IC50,[1],1.6 µM
same,inhibition,[14],> 90%
same,inhibition,[15],> 90%
same,inhibition,[20],> 90%
same,inhibition,[21],> 90%
same,inhibition,[24],> 90%
same,logD,[10],3.4
same,inhibition,[25],> 90%
same,inhibition,[41],> 90%
same,IC50,[2],0.303 µM
same,solubility kinetic,[9],0.8 µM
same,inhibition,[30],> 90%
same,EC50,[5],> 49 µM
same,inhibition,[32],> 90%
same,inhibition,[42],> 90%
same,inhibition,[33],> 90%
same,inhibition,[35],> 90%
same,inhibition,[36],> 90%
same,IC50,[6],8.9 µM
same,IC50,[7],4.2 µM
same,inhibition,[8],> 90%
CN(c1cc(Cl)nn2c(-c3ccc4[nH]ncc4c3)cnc12)[C@H]1CC[C@H](N)CC1,IC50,[1],> 10 µM
same,IC50,[2],> 10 µM
Cn1ncc2cc(-c3cnc4c(NCC5CC5)cc(Cl)nn34)ccc21,IC50,[1],> 10 µM
same,IC50,[2],> 10 µM
CN1CCC(Nc2cc(Cl)nn3c(-c4ccc5[nH]ncc5c4)cnc23)CC1,logD,[10],1.8
same,solubility kinetic,[9],58 µM
CN(c1ccccc1)c1nc2cc(-c3cnc4c(NCC5CC5)cc(Cl)nn34)ccc2[nH]1,IC50,[1],> 10 µM
same,IC50,[2],> 10 µM
CN1CCC(Nc2cc(Cl)nn3c(-c4ccc5[nH]c(Nc6ccccc6)nc5c4)cnc23)CC1,logD,[10],2.7
same,solubility kinetic,[9],41 µM
